# Source: patent US20220177839A1, “COMPOSITION, CULTURE MEDIUM AND METHOD FOR INDUCING AND/OR AMPLIFYING TSCM IN VITRO” (SHANGHAI SINOBAY BIOTECHNOLOGY CO., LTD., priority 2019, published 2022)
# Test system: human primary CD8^+T cells (CD3^+CD8^+)
# Assay: In-vitro induction and amplification of CD8+TSCM in culture media A to E (cell count, flow cytometry CD45RA, CCR7, CD95)
# Type: cell-based
# Details: GSK-3β inhibitor
# Description: 1) Pre-prepared human primary T cells (Shanghai Sinobay Bio-Tech Co., Ltd., hereinafter referred to as “Sinobay”) were selected by a magnetic bead negative selection method to obtain human primary CD8^+T cells (CD3^+CD8^+), and the human primary CD8^+T cells (CD3^+CD8^+) were placed in a 96-well U-bottom culture plate, with 5×10^4 CD8^+T cells in each well;
# 2) subsequently, culture media A to E and magnetic beads coupled to an anti-CD3 antibody and an anti-CD28 antibody were added into the culture plates containing the CD8^+T cells, wherein a ratio of the number of the magnetic beads to the number of the cells was 1:1; and fresh culture media A to E were supplemented at Day 4, Day 7, Day 10 and Day 13 of cell culture; and
# 3) the cells were counted at Day 0, Day 7 and Day 14 of cell culture respectively, flow cytometry antibodies (CD45RA, CCR7 and CD95) for detecting TSCM were incubated, and the TSCM was detected by using a flow cytometry.
smiles,measurement,value
Nc1cccc(-c2cc3c(Oc4cccc(O)c4)ncnc3[nH]2)c1 [TWS119],concentration range that effectively induces the formation of TSCM,1 to 50 µM
